Measured values: patent US20130123254A1, “PHARMACEUTICALLY ACCEPTABLE MGLUR5 POSITIVE ALLOSTERIC MODULATORS AND THEIR METHODS OF IDENTIFICATION” (priority 2011, published 2013)

Experiments:
mGlu5 receptor = molecular target: T1, mGlu5 receptor (Rattus norvegicus, UniProt P31424); assay: Shift factor in Ca2+ mobilization assay (rat); format: cell-based
T1 construct: expressed in transfected cells
Method: (§1) The shift factor is calculated for a specific concentration of the test compound according to the equation: Shift factor=EC50(glutamate)/EC50(glutamate+×uM test compound).
(§2) On the same 96-well plate a serial dilution of glutamate is added to a) cells previously incubated for 10-30 min. with a fixed concentration of an mGlu5 PAM test compound and b) cells not incubated with mGlu5 PAM test compound. The peak fluorescence signals obtained from cells with or without pre-incubation with mGlu5 PAM test compound is plotted as illustrated, and the two EC50 values are derived from the plot. The shift factor is specific for the concentration of the test compound used and calculated as follows: Shift factor=ECM50(glutamate)/EC50(glutamate+×μM test compound).

human mGlu5a receptor [1] = molecular target: T2, human mGlu5a receptor (Homo sapiens, UniProt P41594); assay: Intracellular Ca2+ mobilization assay, PAM EC50 and efficacy at EC20 of L-glutamate; format: cell-based; conditions: maximal response relative to saturating L-glutamate, FIGS. 4 and 5
T2 construct: expressed in transfected cells
T2 sequence (P41594 21-1180 isoform P41594-2 limits assumed): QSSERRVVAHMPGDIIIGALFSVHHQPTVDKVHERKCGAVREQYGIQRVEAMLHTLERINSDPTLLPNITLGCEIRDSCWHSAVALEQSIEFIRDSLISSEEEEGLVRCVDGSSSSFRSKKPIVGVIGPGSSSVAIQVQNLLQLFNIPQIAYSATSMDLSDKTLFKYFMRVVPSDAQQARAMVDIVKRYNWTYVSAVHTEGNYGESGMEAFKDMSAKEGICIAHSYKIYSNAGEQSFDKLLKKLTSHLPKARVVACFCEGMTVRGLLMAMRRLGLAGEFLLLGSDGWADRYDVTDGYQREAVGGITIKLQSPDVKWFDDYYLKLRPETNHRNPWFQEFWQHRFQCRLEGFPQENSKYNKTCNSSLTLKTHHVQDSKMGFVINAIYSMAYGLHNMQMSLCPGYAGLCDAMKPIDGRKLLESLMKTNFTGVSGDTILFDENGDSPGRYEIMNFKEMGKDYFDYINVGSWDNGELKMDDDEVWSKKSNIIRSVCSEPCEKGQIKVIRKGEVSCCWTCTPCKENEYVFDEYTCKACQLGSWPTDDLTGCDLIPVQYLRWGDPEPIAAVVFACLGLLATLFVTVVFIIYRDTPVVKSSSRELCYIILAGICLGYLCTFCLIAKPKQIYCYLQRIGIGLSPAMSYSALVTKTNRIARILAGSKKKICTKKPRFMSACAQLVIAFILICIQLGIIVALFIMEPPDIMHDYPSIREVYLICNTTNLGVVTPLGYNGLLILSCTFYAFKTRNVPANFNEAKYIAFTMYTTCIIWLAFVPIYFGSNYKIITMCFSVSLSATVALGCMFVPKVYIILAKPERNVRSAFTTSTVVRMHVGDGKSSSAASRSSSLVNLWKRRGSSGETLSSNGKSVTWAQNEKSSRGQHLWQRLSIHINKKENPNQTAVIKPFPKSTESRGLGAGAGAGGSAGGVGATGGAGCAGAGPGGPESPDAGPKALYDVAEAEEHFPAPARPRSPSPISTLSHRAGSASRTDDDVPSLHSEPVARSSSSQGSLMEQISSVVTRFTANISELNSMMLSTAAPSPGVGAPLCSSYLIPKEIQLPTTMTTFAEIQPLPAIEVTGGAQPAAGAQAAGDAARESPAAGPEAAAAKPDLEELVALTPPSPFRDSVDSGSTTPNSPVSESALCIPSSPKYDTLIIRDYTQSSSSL

human mGlu5a receptor [2] = molecular target: T2, human mGlu5a receptor; assay: Shift factor in Ca2+ mobilization assay (human); format: cell-based; conditions: shift factor = EC50(glutamate)/EC50(glutamate + test compound)
Method: A monoclonal HEK-293 cell line stably transfected with a cDNA encoding for the human mGlu5a receptor was generated; for the work with mGlu5 Positive Allosteric Modulators (PAMs), a cell line with low receptor expression levels and low constitutive receptor activity was selected to allow the differentiation of agonistic versus PAM activity. Cells were cultured according to standard protocols (Freshney, 2000) in Dulbecco's Modified Eagle Medium with high glucose supplemented with 1 mM glutamine, 10% (vol/vol) heat-inactivated bovine calf serum, Penicillin/Streptomycin, 50 μg/ml hygromycin and 15 μg/ml blasticidin (all cell culture reagents and antibiotics from Invitrogen, Basel, Switzerland).
About 24 hrs before an experiment, 5×10^4 cells/well were seeded in poly-D-lysine coated, black/clear-bottomed 96-well plates. The cells were loaded with 2.5 μM Fluo-4AM in loading buffer (1×HBSS, 20 mM HEPES) for 1 hr at 37° C. and washed five times with loading buffer. The cells were transferred into a Functional Drug Screening System 7000 (Hamamatsu, Paris, France), and 11 half logarithmic serial dilutions of test compound at 37° C. were added and the cells were incubated for 10-30 min. with on-line recording of fluorescence. Following this pre-incubation step, the agonist L-glutamate was added to the cells at a concentration corresponding to EC20 (typically around 80 μM) with on-line recording of fluorescence; in order to account for day-to-day variations in the responsiveness of cells, the EC20 of glutamate was determined immediately ahead of each experiment by recording of a full dose-response curve of glutamate.
as §1, §2

[3] = HTD/LTD dose, tolerability in rat; conditions: for HTD/LTD Dose (rat) (observation): observation at the HTD/LTD dose
Body temperature test = format: in vivo; conditions: rat, body temperature at 2 h, read-out: BT test MED (rat)
Method: Principle: Evaluation of the effect of a compound on core body temperature at a 2-h interval in the rat.
The temperature decrease in rats upon administration of mGluR5 negative allosteric modulators (antagonists) is well documented Warty & al.; Psychopharmacology (2005) 179: 207-217 (DOI 10.1007/s00213-005-2143-4)).
Male Sprague Dawley Rats (OFA-SD, Charles River, ˜250 g) are weighed and isolated for at least 30 min before compound injection in type II Makrolon cages. Before injection of the mGlu5 PAM compound, rectal body temperature is measured with a thermometer with a special rat probe for ˜20 s. The probe is dipped in glycerin before each use. Immediately after compound administration, rats are placed back in the type 2 cage. After 2 hours, the body temperature of each rat is measured again. The difference in absolute body temperature as well as the temperature difference delta T2-T0 between vehicle and compound injected rats is analysed.

T1 sequence (P31424 21-1203): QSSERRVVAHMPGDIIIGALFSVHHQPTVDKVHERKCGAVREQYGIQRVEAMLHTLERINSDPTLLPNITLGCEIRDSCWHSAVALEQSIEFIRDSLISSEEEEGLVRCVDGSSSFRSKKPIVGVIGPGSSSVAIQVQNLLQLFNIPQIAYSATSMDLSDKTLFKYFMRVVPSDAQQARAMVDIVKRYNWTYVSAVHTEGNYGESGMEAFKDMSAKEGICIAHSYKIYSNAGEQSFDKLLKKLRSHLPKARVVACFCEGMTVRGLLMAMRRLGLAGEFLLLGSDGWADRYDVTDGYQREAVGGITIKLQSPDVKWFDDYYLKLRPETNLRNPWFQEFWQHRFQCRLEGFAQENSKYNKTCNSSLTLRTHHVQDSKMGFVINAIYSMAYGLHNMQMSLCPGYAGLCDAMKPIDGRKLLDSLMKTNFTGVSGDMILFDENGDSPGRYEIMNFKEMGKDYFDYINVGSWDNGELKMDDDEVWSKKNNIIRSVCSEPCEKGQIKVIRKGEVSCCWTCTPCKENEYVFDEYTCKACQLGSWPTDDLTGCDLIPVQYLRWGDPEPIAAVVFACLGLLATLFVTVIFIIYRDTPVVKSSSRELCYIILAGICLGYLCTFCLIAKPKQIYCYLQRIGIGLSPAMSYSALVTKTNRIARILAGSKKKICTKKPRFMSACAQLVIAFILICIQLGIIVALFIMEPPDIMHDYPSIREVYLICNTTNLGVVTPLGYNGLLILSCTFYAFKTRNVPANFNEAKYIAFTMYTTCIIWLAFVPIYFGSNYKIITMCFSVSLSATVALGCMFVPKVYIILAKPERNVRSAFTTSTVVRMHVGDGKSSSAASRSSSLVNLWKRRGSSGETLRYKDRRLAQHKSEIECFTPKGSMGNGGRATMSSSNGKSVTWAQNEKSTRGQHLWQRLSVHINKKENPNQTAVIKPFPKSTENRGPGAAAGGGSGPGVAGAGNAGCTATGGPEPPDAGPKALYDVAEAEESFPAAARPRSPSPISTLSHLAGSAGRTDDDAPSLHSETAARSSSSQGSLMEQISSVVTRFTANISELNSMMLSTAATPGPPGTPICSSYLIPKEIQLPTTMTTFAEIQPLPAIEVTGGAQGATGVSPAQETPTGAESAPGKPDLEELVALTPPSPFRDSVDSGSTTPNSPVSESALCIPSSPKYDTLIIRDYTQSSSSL

Compound	Shift (rat, 10 uM) (mGlu5 receptor)	efficacy (human mGlu5a receptor [1])	Shift (hum, 10 uM) (human mGlu5a receptor [2])	HTD/LTD Dose (rat) [3]	HTD/LTD Dose (rat) (observation) [3]	minimal effective dose (Body temperature test)
CC1(C)CC(=O)N(c2ccc(C#Cc3cccc(F)c3)cn2)N1 [Example 1]	1.44	low efficacy	1.75	100 mg/kg	well tolerated	0.3 mg/kg
CN1C(=O)N(c2ccc(C#Cc3ccccc3)cn2)[C@@H]2CCC[C@@H]21 [Example 2]	0.88	–	1.02	100 mg/kg	well tolerated	0.1 mg/kg
CN1C(=O)N(c2ccc(C#Cc3cccc(F)c3)cn2)[C@@H]2CCC[C@@H]21 [Example 3]	0.82	–	0.87	100 mg/kg	well tolerated	0.1 mg/kg
CN1C(=O)N(c2ccc(C#Cc3ccccc3)nn2)[C@@H]2CCC[C@@H]21 [Example 4]	1.70	–	2.46	100 mg/kg	well tolerated	0.1 mg/kg
CN1C(C)(C)CN(c2ccc(C#Cc3ccccc3)cn2)S1(=O)=O [Example 5]	1.66	–	2.02	100 mg/kg	well tolerated	0.3 mg/kg
CC1(C)CN(c2ccc(C#Cc3cccc(F)c3)cn2)C(=O)O1 [Example 6]	1.90	–	1.40	100 mg/kg	well tolerated	0.3 mg/kg
CN1C(=O)N(c2ncc(C#Cc3ccc(F)cc3)cn2)CC1(C)C [Example 7]	1.80	–	2.44	100 mg/kg	well tolerated	0.3 mg/kg
CN1C(=O)N(c2ccc(C#Cc3cncc(Cl)c3)cn2)CC1(C)C [Example 8]	2.28	–	3.60	100 mg/kg	well tolerated	1 mg/kg
CC1(C)CN(c2ccc(C#Cc3ccccc3)cn2)C(=O)O1 [Example 9]	2.63	–	1.70	30 mg/kg	well tolerated	1 mg/kg
CO[C@@H]1C(=O)N(c2ncc(C#Cc3cccc(F)c3)cn2)CC1(C)C [Example 10]	2.62	–	3.46	100 mg/kg	well tolerated	0.3 mg/kg
CN(C(=O)c1ncc(C#Cc2cccc(F)c2)cn1)C(C)(C)C [Example 11]	1.86	–	2.06	100 mg/kg	well tolerated	0.1 mg/kg
CN(C(=O)c1ccc(C#Cc2cc(F)ccc2F)cn1)C(C)(C)C [Example 12]	1.62	–	1.86	100 mg/kg	well tolerated	0.1 mg/kg
CC1(C)CCN(c2ccc(C#Cc3cccc(Cl)c3)cn2)C(=O)C1 [Example 13]	3.92	–	4.74	100 mg/kg	seizures	0.1 mg/kg
CN1C(=O)N(c2ccc(C#Cc3ccccc3)cn2)CC1(C)C [Example 14]	–	–	–	3 mg/kg	–	0.3 mg/kg
CC1(C)CCN(c2ccc(C#Cc3ccccc3)cn2)C(=O)O1 [Example 15]	7.67	high efficacy	9.73	3 mg/kg	seizures	0.1 mg/kg
C(#Cc1cnc2nc(N3CCOCC3)nn2c1)c1ccccc1 [Example 16]	11.31	–	12.13	10 mg/kg	seizures	3 mg/kg
CC1(C)CCN(c2ccc(C#Cc3ccccc3)cn2)C(=O)C1 [Example 17]	12.93	–	15.95	100 mg/kg	seizures	0.1 mg/kg
